# From ChEMBL document CHEMBL1150831, “Immunosuppressive sesquiterpene alkaloids from Tripterygium wilfordii” (2001)
# The source made the active and inactive calls. The calls are words filed in the database; no cut-off is given here.
# Legend:
# Type in all cases: functional
# PBMC [1] = assay: Immunosuppressive activity in human PBMC assessed as inhibition of LPS-stimulated IL1-beta production at 0.3 ug/mL after 18 to 24 hrs by ELISA
# PBMC [2] = assay: Immunosuppressive activity in human PBMC assessed as inhibition of LPS-stimulated TNFalpha production at 0.3 ug/mL after 18 to 24 hrs by ELISA
# PBMC [3] = assay: Immunosuppressive activity in human PBMC assessed as inhibition of LPS-stimulated IL8 production at 0.3 ug/mL after 18 to 24 hrs by ELISA
# PBMC [4] = assay: Immunosuppressive activity in human PBMC assessed as inhibition of LPS-stimulated IL2 production at 0.3 ug/mL after 18 to 24 hrs by ELISA
# PBMC [5] = assay: Immunosuppressive activity in human PBMC assessed as inhibition of LPS-stimulated IFN-gamma production at 0.3 ug/mL after 18 to 24 hrs by ELISA
# PBMC [6] = assay: Immunosuppressive activity in human PBMC assessed as inhibition of LPS-stimulated IL4 production at 0.3 ug/mL after 18 to 24 hrs by ELISA
# PBMC [7] = assay: Immunosuppressive activity in human PBMC assessed as inhibition of LPS-stimulated IFN-gamma production at 10 ug/mL after 18 to 24 hrs by ELISA
# PBMC [8] = assay: Immunosuppressive activity in human PBMC assessed as inhibition of LPS-stimulated IL2 production at 10 ug/mL after 18 to 24 hrs by ELISA
# PBMC [9] = assay: Immunosuppressive activity in human PBMC assessed as inhibition of LPS-stimulated IL1-beta production at 10 ug/mL after 18 to 24 hrs by ELISA
# PBMC [10] = assay: Immunosuppressive activity in human PBMC assessed as inhibition of LPS-stimulated IL8 production at 10 ug/mL after 18 to 24 hrs by ELISA
# PBMC [11] = assay: Immunosuppressive activity in human PBMC assessed as inhibition of LPS-stimulated TNFalpha production at 10 ug/mL after 18 to 24 hrs by ELISA
# PBMC [12] = assay: Immunosuppressive activity in human PBMC assessed as inhibition of LPS-stimulated IL4 production at 10 ug/mL after 18 to 24 hrs by ELISA
Compound,inhibition at 0.3 µg/mL (PBMC [1]) [%],inhibition at 0.3 µg/mL (PBMC [2]) [%],inhibition at 0.3 µg/mL (PBMC [3]) [%],inhibition at 0.3 µg/mL (PBMC [4]) [%],inhibition at 0.3 µg/mL (PBMC [5]) [%],inhibition at 0.3 µg/mL (PBMC [6]) [%],inhibition (PBMC [7]),inhibition (PBMC [8]),inhibition (PBMC [9]),inhibition (PBMC [10]),inhibition (PBMC [11]),inhibition (PBMC [12])
C[C@]12C=CC(=O)C=C1CC[C@@H]1[C@@H]2[C@@H](O)C[C@@]2(C)[C@H]1CC[C@]2(O)C(=O)CO [PREDNISOLONE],68,52,15,65,75,76,,,,,,
CC(=O)OC[C@]12[C@H](OC(C)=O)[C@H](OC(C)=O)[C@@H]3[C@@H](OC(C)=O)[C@@]14O[C@@]3(C)COC(=O)c1cccnc1CC[C@@](C)(OC(=O)c1ccco1)C(=O)O[C@@H]([C@H](OC(C)=O)[C@@H]2OC(C)=O)[C@]4(C)O,,,,,,,inactive,inactive,inactive,inactive,inactive,inactive
